In patent US12102685B2, “Immodulator peptides covalently modified with small molecules” (priority 2020, dated 2024):
Marks after values point to notes of the source that are not given here. Peptide text beside a SMILES is read from it.

What was measured:
STING = test: THP1-Dual monocyte reporter, STING readout (x4A); assay type: cell-based
Description: Immune modulation functions of immodulator peptides were measured using the monocyte reporter cell line THP1-Dual (Invivogen, San Diego, CA), which provides convenient readouts for STING and NF-kappa-B pathways. Optionally, succinic acid, cytokine and chemokine production were also measured. THP1-Dual cell line was obtained from Invivogen. Cells were grown in a T-75 flask in RPMI Medium containing 20% fetal bovine serum, blasticidin ([…]), zeocin ([…]) and penicillin-streptomycin at 37° C. in a humidified, 5% CO2 incubator. Cells ([…], 8,000 cells/well) were plated in a 96-well plate and incubated overnight at 37 °C in a humidified, 5% CO2 incubator. Next day, […] of compounds were added (quadruplicate wells). After 24 hour incubation with the compound, supernatants were harvested and stored at 4° C. prior to assay.
Each cell supernatant was assayed in quadruplicate. 20 uL of supernatant was used to measure NF-kappa-B (NFkB) and
STING activity using reagents QuantiBlu and QuantiLuc respectively, according to the manufacturer's recommendations (Invivogen, San Diego, CA). Succinic acid was measured by using a kit from Megazyme Inc (Cambridge, MA). Control value of activity was set to 100 in each assay. […] PAM3C=25 ng/ml PAM3CSK4 (TLR1/2 inducer); Poly(I:C)=10 ug/ml (TLR3 inducer); PAM2C=25 ng/ml PAM2CSK4 (TLR2/6 inducer); KIN14=4 uM KIN-1400 (RIG-I inducer); cytB=1 uM cytosporone B (Nur77 inducer); C-178=1 uM STING inhibitor; NFkBi=50 ug/ml NFkB inhibitor peptide; SB2021=10 uM p38MAPK inhibitor; *p<0.05, **p<0.01 vs IM3 control; #p<0.01 vs “no inducer” control; SUCC=succinic acid; nd=not done; Peptide was added to cells at 400 nM.
Peptides were added to cells at 400 nM. […]

[1] = system: genes associated with oxidative stress in dorsal root ganglia; test: qRT-PCR of dorsal root ganglia 14 days after burn; assay type: in vivo, Sprague Dawley rats; settings: DRG 14 days after burn, sham = 1
Text: Survivors of severe burns suffer lifetime neuroinflammatory consequences manifested by higher incidence of major depression and neurodegenerative disease. […] Nephrilin's mechanism of action appears to involve protection from excessive oxidative stress. Using quantitative reverse transcriptase polymerase chain reaction (qRT-PCR) amplification of transcripts in total RNA extracted from dorsal root ganglia (DRG) of male rats 14 days after exposure to thermal insult, we query the relative levels of expression of 34 genes believed to be associated with oxidative stress biology in the CNS. […] This subset analysis of DRG from a previously published study (n=3 per group) is associated with the following effects in the study (Table x7A):
In this study, using quantitative reverse transcriptase polymerase chain reaction (qRT-PCR) amplification of transcripts in total RNA extracted from dorsal root ganglia of male rats 14 days after exposure to thermal insult, the relative levels of expression of 34 genes believed to be associated with oxidative stress biology in the CNS were queried, with an emphasis on astrogliosis, immunosuppression and mitochondrial homeostasis. The 34 genes studied were selected based on their known implication in the above processes, as described in the scientific literature. Dorsal root ganglia (DRG) were dissected from male adult Sprague Dawley rats (300 gm, Charles River Laboratories, Wilmington, MA, USA), three randomly selected animals in each treatment group were used (Group 1:sham; Group 2: burn+vehicle; Group 3: burn+IM3N1) and total RNA was extracted from each pool using the Rneasy Midi Kit (Qiagen, Germantown, MD). Yield was ˜30 ug RNA per pool and A260/A280 ratios were between 1.87-2.04 in all cases. The high quality of each RNA prep was further confirmed by electrophoresis (using Eukaryote Total RNA Nano). For quantitative reverse transcriptase polymerase chain reaction (qRT-PCR) RNAs were diluted in RNase/DNase free water and aliquoted into wells in triplicate. Approximately 100 ng of RNA was used per well. A one step qPCR method was performed using Luna Universal One-Step RT-qPCR kit (New England Biolabs, Ipswich, MA) containing reverse transcriptase enzyme mix. Primer pairs for each gene were synthesized for the SYBR assay. The following standard qPCR cycling conditions were used: 55C for 10′ (for RT), 95C for 1′ followed by 40 cycles at 95C for 10 s. 58C for 30 s. Background was set at 3-10 cycles and the threshold was set at 0.02 for all runs. Ct values were collected and analyzed using the “delta-delta Ct” method. Transcript data for each gene are shown relative to GAPDH, a house-keeping gene. Sham group value was set to 1. Gene groups: [A] astrocyte activation; [B] MDSC-mediated immunosuppression; [C] Mitochondrial homeostasis; [D] Downstream effects of oxidative stress;

burn wound length = test: Post-burn wound healing study (x8A); assay type: in vivo, rats; settings: burn-group treatment as labelled (4 mg/kg), then vehicle weeks 2-6
Description: Experiment x8A. Male rats treated with 4 mg/kg nephrilin peptide IM3N1 for 2 weeks in Example 5 were subsequently treated 3× weekly (Mon-Wed-Fri) for 4 weeks with vehicle (n=12) or with 1 mg/kg IM3vlp peptide (n=12) by subcutaneous bolus injection (200 uL volume). Longitudinal wound length between the hairlines was measured at 6 weeks, and this value was corrected for nose-to-ear length and width of each animal. The mean resulting value (in arbitrary units) is shown below.

`N=C(N)NCCC[C@H](NC(=O)CNC(=O)[C@H](CCCCN)NC(=O)[C@H](CO)NC(=O)[C@@H]1CCCN1C(=O)[C@H](CCCNC(=N)N)NC(=O)[C@H](CS)NC(=O)[C@H](CCC(N)=O)NC(=O)[C@H](CCCCN)NC(=O)[C@H](CCCCN)NC(=O)[C@H](CCCCN)NC(=O)[C@H](Cc1ccc(O)cc1)NC(=O)[C@H](Cc1ccccc1)NC(=O)CNC(=O)[C@H](CCCCN)NC(=O)[C@@H](N)CCCCN)C(=O)N[C@@H](CCCCN)C(=O)N[C@@H](CCCNC(=N)N)C(=O)NCC(=O)N[C@@H](Cc1ccccc1)C(=O)N[C@@H](CS)C(=O)N[C@@H](Cc1c[nH]c2ccccc12)C(=O)O` [IM3] (H-KKGFYKKKQCRPSKGRKRGFCW-OH; N-terminus and C-terminus assumed) was tested, and the STING (STING; peptide 400 nM + KIN1400 (= 100)) was 100, the STING (STING; peptide 400 nM + KIN1400 + C-178 1 uM) was 81.1** and the STING (STING; peptide 400 nM + KIN1400 + NFkBi 50 ug/ml) was 105.0. For the same molecule, the STING (STING; peptide 400 nM + KIN1400 + SB2021 10 uM) was 75.6**, the STING (STING; peptide 400 nM + KIN1400 + cytB 1 uM) was 87.5* and the STING (STING; peptide 400 nM + PAM2C (= 100)) was 100. For the same molecule, the STING (STING; peptide 400 nM + PAM2C + C-178 1 uM) was 62.0**, the STING (STING; peptide 400 nM + PAM2C + NFkBi 50 ug/ml) was 119.1* and the STING (STING; peptide 400 nM + PAM2C + SB2021 10 uM) was 18.9**. The STING (STING; peptide 400 nM + PAM2C + cytB 1 uM) was 96.5, the STING (STING; peptide 400 nM + PAM3C + C-178 1 uM) was 566** and the STING (STING; peptide 400 nM + PAM3C + NFkBi 50 ug/ml) was 1294**. For the same molecule, the STING (STING; peptide 400 nM + PAM3C + SB2021 10 uM) was 274**, the STING (STING; peptide 400 nM + PAM3C + cytB 1 uM) was 1318** and the STING (STING; peptide 400 nM + PAM3C, control = 100) was 1474. For the same molecule, the STING (STING; peptide 400 nM, no inducer, control = 100) was 91**.

In the case of “RGVTEDYLRLETLVQKVVSKGFYKKKQCRPSKGRKRGFCW [IM3N1]”, the “GFAP transcript relative to GAPDH” value ([1]; [A] astrocyte activation, IM3N1 4 mg/kg sc 7 days) was 2.40, the “AQP4 transcript relative to GAPDH” value ([1]; [A]) was 0.59 and the “CTGF transcript relative to GAPDH” value ([1]; [A]) was 1.61. The “GALANIN transcript relative to GAPDH” value ([1]; [A]) was 18.50, the “NPY transcript relative to GAPDH” value ([1]; [A]) was 29.50 and the “Pi16 transcript relative to GAPDH” value ([1]; [A]) was 2.40. The “S100A9 transcript relative to GAPDH” value ([1]; [A]) was 5.01, the “SLC7A11 transcript relative to GAPDH” value ([1]; [B] MDSC-mediated immunosuppression) was 4.78 and the “ARG1 transcript relative to GAPDH” value ([1]; [B]) was 3.09. For the same molecule, the “CCL2 transcript relative to GAPDH” value ([1]; [B]) was 3.17, the “CD63 transcript relative to GAPDH” value ([1]; [B]) was 1.88 and the “NRF2 transcript relative to GAPDH” value ([1]; [B]) was 1.29. For the same molecule, the “TFAM transcript relative to GAPDH” value ([1]; [C] Mitochondrial homeostasis) was 1.14, the “ACMSD transcript relative to GAPDH” value ([1]; [C]) was 0.97 and the “BOK transcript relative to GAPDH” value ([1]; [C]) was 1.10. For the same molecule, the “FIS1 transcript relative to GAPDH” value ([1]; [C]) was 0.90, the “GLUL transcript relative to GAPDH” value ([1]; [C]) was 1.53 and the “HCRTR1 transcript relative to GAPDH” value ([1]; [C]) was 1.42. The “MFN2 transcript relative to GAPDH” value ([1]; [C]) was 1.48, the “NOX2 transcript relative to GAPDH” value ([1]; [C]) was 2.07 and the “NOX4 transcript relative to GAPDH” value ([1]; [C]) was 6.57. For the same molecule, the “OXR1 transcript relative to GAPDH” value ([1]; [C]) was 1.04, the “PINK1 transcript relative to GAPDH” value ([1]; [C]) was 1.35 and the “PPARGC1A transcript relative to GAPDH” value ([1]; [C]) was 1.00. For the same molecule, the “RAC1 transcript relative to GAPDH” value ([1]; [C]) was 1.00, the “SHC1 transcript relative to GAPDH” value ([1]; [C]) was 2.34 and the “SLC23A2 transcript relative to GAPDH” value ([1]; [C]) was 1.47. For the same molecule, the “STEAP4 transcript relative to GAPDH” value ([1]; [C]) was 1.77, the “UCP2 transcript relative to GAPDH” value ([1]; [C]) was 1.22 and the “PLSCR1 transcript relative to GAPDH” value ([1]; [D] Downstream effects of oxidative stress) was 2.30. For the same molecule, the “BACE1 transcript relative to GAPDH” value ([1]; [D]) was 1.42, the “SLC12A2 transcript relative to GAPDH” value ([1]; [D]) was 1.59 and the “SLC12A5 transcript relative to GAPDH” value ([1]; [D]) was 1.38. For the same molecule, the “corrected longitudinal wound length at 6 weeks” value (burn wound length) was 131.3 ± 18.6 arbitrary units.
